Patent US12116388B2, “Amylin receptor agonists” (Novo Nordisk A/S, priority 2022, dated 2024)
Starred links: 1 amine or outer side, 2 acyl side, 3 side chain; linkers in the order of their positions; H or OH if unused. Residues, ends and D or L forms follow the SMILES beside them. Groups on a side chain read outwards from the residue. *: point of attachment. C18 diacid = O=C(O)CCCCCCCCCCCCCCCCC(=O)*; γGlu = O=C(O)[C@H](CCC(=O)[*:2])N[*:1]

Legend:
[1] = target: T1, human amylin receptor (hAMYR3) (Homo sapiens, UniProt O60896+P30988); experiment: Human amylin receptor (hAMYR3) in vitro potency assay, CRE-luciferase reporter in BHK cells; assay type: cell-based; conditions: BHK hAMYR3/CRE-Luc cells, 3 hours incubation, assay buffer with 1% ovalbumin
T1 construct: host or cells: BHK (Baby Hamster Kidney), Hollex-1 cell line further transfected with RAMP3
Procedure, shortened: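 BHK cells stably expressing human calcitonin receptor (a) plus RAMP3 and a CRE-luciferase reporter, seeded overnight, then exposed to 7-point 7-fold dilutions (often from ~10 nM) in DMEM/HEPES buffer with 1% ovalbumin for 3 h at 37 °C. Luciferase luminescence read after SteadyLite Plus addition.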

[2] = target: T2, human calcitonin receptor (hCTR) (Homo sapiens, UniProt P30988); experiment: Human calcitonin receptor (hCTR) in vitro potency assay, CRE-luciferase reporter in BHK cells; assay type: cell-based; conditions: BHK hCTR/CRE-Luc cells, 3 hours incubation, assay buffer with 1% ovalbumin; read-out: hCalcR potency, EC50
T2 construct: host or cells: BHK (Baby Hamster Kidney), Hollex-1 cell line
T2 sequence (P30988 25-474): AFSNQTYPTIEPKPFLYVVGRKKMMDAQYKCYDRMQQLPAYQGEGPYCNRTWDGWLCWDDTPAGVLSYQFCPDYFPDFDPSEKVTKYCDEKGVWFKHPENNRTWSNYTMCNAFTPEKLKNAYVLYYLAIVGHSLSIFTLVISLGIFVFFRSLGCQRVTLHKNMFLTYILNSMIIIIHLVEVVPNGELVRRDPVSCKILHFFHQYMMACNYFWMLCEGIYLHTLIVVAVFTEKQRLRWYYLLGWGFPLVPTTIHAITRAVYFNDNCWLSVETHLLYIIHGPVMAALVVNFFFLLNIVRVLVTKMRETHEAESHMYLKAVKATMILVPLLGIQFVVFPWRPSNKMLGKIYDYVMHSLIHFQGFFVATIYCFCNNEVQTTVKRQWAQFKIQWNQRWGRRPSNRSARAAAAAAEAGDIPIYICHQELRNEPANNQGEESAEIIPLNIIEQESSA
Procedure, shortened: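 BHK cells stably co-expressing human calcitonin receptor and a CRE-luciferase reporter, seeded the day before, were exposed to 7-fold serial dilutions (7 concentrations, often starting near 10 nM) in DMEM/HEPES/1% ovalbumin buffer for 3 h at 37 °C. Luminescence was then read after SteadyLite Plus addition.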

T1 sequence (O60896 24-148, one chain of several): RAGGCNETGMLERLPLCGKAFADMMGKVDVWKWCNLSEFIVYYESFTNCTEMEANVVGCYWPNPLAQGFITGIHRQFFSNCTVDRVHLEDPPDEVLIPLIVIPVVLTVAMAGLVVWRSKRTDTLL

SMILES | EC50 [1] | EC50 [2]
CC[C@H](C)[C@H](NC(=O)[C@@H]1CCCN1C(=O)CNC(=O)[C@H](Cc1ccccc1)NC(=O)[C@H](CC(N)=O)NC(=O)[C@H](CC(=O)O)NC(=O)[C@H](CO)NC(=O)[C@H](CO)NC(=O)[C@H](Cc1c[nH]cn1)NC(=O)[C@H](Cc1c[nH]cn1)NC(=O)[C@H](CC(C)C)NC(=O)[C@H](Cc1ccccc1)NC(=O)[C@H](CCC(=O)O)NC(=O)[C@H](C)NC(=O)[C@H](CC(C)C)NC(=O)[C@H](CCCNC(=N)N)NC(=O)[C@H](C)NC(=O)[C@@H](NC(=O)[C@H](CCC(N)=O)NC(=O)[C@H](C)NC(=O)[C@@H](NC(=O)[C@H](CO)NC(=O)[C@H](CC(C)C)NC(=O)[C@H](CCC(N)=O)NC(=O)[C@H](CO)NC(=O)[C@H](C)NC(=O)CC[C@H](NC(=O)CCCCCCCCCCCCCCCCC(=O)O)C(=O)O)[C@@H](C)O)[C@@H](C)O)C(=O)N[C@@H](CC(C)C)C(=O)N1CCC[C@H]1C(=O)N1CCC[C@H]1C(=O)N[C@H](C(=O)N[C@@H](CC(=O)O)C(=O)N[C@H](C(=O)NCC(=O)N[C@@H](CO)C(=O)N[C@@H](CC(N)=O)C(=O)N[C@H](C(=O)N1CCC[C@H]1C(N)=O)[C@@H](C)O)C(C)C)[C@@H](C)O [Compound 22, N^1-[(4S)-4-carboxy-4-(17-carboxyheptadecanoylamino)butanoyl]-[Ala1,Ser2,Gln3,Leu4,Ser5,Ala7,Gln8,Ala10,Glu14,His17,Asp21,Pro25,Pro28,Pro29,Asp31,Pro37]-human amylin] ({C18 diacid-γGlu}-ASQLSTAQTARLAEFLHHSSDNFGPILPPTDVGSNTP-NH2) | 1.22 pM | 1.86 pM
CC[C@H](C)[C@H](NC(=O)[C@H](C)NC(=O)CNC(=O)[C@H](Cc1ccccc1)NC(=O)[C@@H]1CCCN1C(=O)[C@H](CC(=O)O)NC(=O)[C@H](CO)NC(=O)[C@H](CO)NC(=O)[C@H](Cc1c[nH]cn1)NC(=O)[C@H](Cc1c[nH]cn1)NC(=O)[C@H](CC(C)C)NC(=O)[C@H](Cc1ccccc1)NC(=O)[C@H](CCC(=O)O)NC(=O)[C@H](C)NC(=O)[C@H](CC(C)C)NC(=O)[C@H](CCCNC(=N)N)NC(=O)[C@H](CCC(N)=O)NC(=O)[C@@H](NC(=O)[C@H](CCC(N)=O)NC(=O)[C@H](C)NC(=O)[C@@H](NC(=O)[C@H](CO)NC(=O)[C@H](CC(C)C)NC(=O)[C@H](CCC(N)=O)NC(=O)[C@H](CO)NC(=O)[C@H](C)NC(=O)CC[C@H](NC(=O)CCCCCCCCCCCCCCCCC(=O)O)C(=O)O)[C@@H](C)O)[C@@H](C)O)C(=O)N1CCC[C@H]1C(=O)N[C@@H](CO)C(=O)N[C@@H](CO)C(=O)N[C@H](C(=O)N[C@@H](CC(=O)O)C(=O)N[C@H](C(=O)NCC(=O)N1CCC[C@H]1C(=O)N[C@@H](CC(=O)O)C(=O)N[C@H](C(=O)N1CCC[C@H]1C(N)=O)[C@@H](C)O)C(C)C)[C@@H](C)O [Compound 24] ({C18 diacid-γGlu}-ASQLSTAQTQRLAEFLHHSSDPFGAIPSSTDVGPDTP-NH2) | 1.49 pM | 1.56 pM
CC[C@H](C)[C@H](NC(=O)[C@H](C)NC(=O)CNC(=O)[C@H](Cc1ccccc1)NC(=O)[C@@H]1CCCN1C(=O)[C@H](CC(=O)O)NC(=O)[C@H](CO)NC(=O)[C@H](CO)NC(=O)[C@H](Cc1c[nH]cn1)NC(=O)[C@H](Cc1c[nH]cn1)NC(=O)[C@H](CC(C)C)NC(=O)[C@H](Cc1ccccc1)NC(=O)[C@H](CCC(=O)O)NC(=O)[C@H](C)NC(=O)[C@H](CC(C)C)NC(=O)[C@H](CCCNC(=N)N)NC(=O)[C@H](C)NC(=O)[C@@H](NC(=O)[C@H](CCC(N)=O)NC(=O)[C@H](C)NC(=O)[C@@H](NC(=O)[C@H](CO)NC(=O)[C@H](CC(C)C)NC(=O)[C@H](Cc1c[nH]cn1)NC(=O)[C@H](CO)NC(=O)[C@H](C)NC(=O)CC[C@H](NC(=O)CCCCCCCCCCCCCCCCC(=O)O)C(=O)O)[C@@H](C)O)[C@@H](C)O)C(=O)N1CCC[C@H]1C(=O)N[C@@H](CO)C(=O)N[C@@H](CO)C(=O)N[C@H](C(=O)N[C@@H](CC(=O)O)C(=O)N[C@H](C(=O)NCC(=O)N1CCC[C@H]1C(=O)N[C@@H](CC(=O)O)C(=O)N[C@H](C(=O)N1CCC[C@H]1C(N)=O)[C@@H](C)O)C(C)C)[C@@H](C)O [Compound 25, N^1-[(4S)-4-carboxy-4-(17-carboxyheptadecanoylamino)butanoyl]-[Ala1,Ser2,His3,Leu4,Ser5,Ala7,Gln8,Ala10,Glu14,His17,Asp21,Pro22,Pro27,Asp31,Pro34,Asp35,Pro37]-human amylin] ({C18 diacid-γGlu}-ASHLSTAQTARLAEFLHHSSDPFGAIPSSTDVGPDTP-NH2) | 1.27 pM | 1.5 pM
CC[C@H](C)[C@H](NC(=O)[C@H](CCCCNC(=O)CC[C@H](NC(=O)CCCCCCCCCCCCCCCCC(=O)O)C(=O)O)NC(=O)CNC(=O)[C@H](Cc1ccccc1)NC(=O)[C@H](CC(N)=O)NC(=O)[C@H](CC(=O)O)NC(=O)[C@H](CO)NC(=O)[C@H](CO)NC(=O)[C@H](Cc1c[nH]cn1)NC(=O)[C@H](Cc1c[nH]cn1)NC(=O)[C@H](CC(C)C)NC(=O)[C@H](Cc1ccccc1)NC(=O)[C@H](CCC(=O)O)NC(=O)[C@H](C)NC(=O)[C@H](CC(C)C)NC(=O)[C@H](CCCNC(=N)N)NC(=O)[C@H](C)NC(=O)[C@@H](NC(=O)[C@H](CCC(N)=O)NC(=O)[C@H](C)NC(=O)[C@@H](NC(=O)[C@H](CO)NC(=O)[C@H](CC(C)C)NC(=O)[C@H](Cc1c[nH]cn1)NC(=O)[C@H](CO)NC(=O)[C@H](C)NC(C)=O)[C@@H](C)O)[C@@H](C)O)C(=O)N[C@@H](CC(C)C)C(=O)N1CCC[C@H]1C(=O)N1CCC[C@H]1C(=O)N[C@H](C(=O)N[C@@H](CC(=O)O)C(=O)N[C@H](C(=O)NCC(=O)N[C@@H](CO)C(=O)N[C@@H](CC(N)=O)C(=O)N[C@H](C(=O)N1CCC[C@H]1C(N)=O)[C@@H](C)O)C(C)C)[C@@H](C)O [Compound 41, N^1-acetyl,N{Epsilon-25}-[(4S)-4-carboxy-4-(17-carboxyheptadecanoylamino)butanoyl]-[Ala1,Ser2,His3,Leu4,Ser5,Ala7,Gln8,Ala10,Glu14,His17,Asp21,Lys25,Pro28,Pro29,Asp31,Pro37]-human amylin] (Ac-ASHLSTAQTARLAEFLHHSSDNFGK([γGlu-C18 diacid])ILPPTDVGSNTP-NH2) | 1.16 pM | 1.16 pM
